In patent US7714014B2, “Targeting GLI proteins in human cancer by small molecules” (The Regents of the University of California, priority 2005, dated 2010):
Entries after “also recorded” stand apart in the source; their conditions may differ.

Experiments:
[1] = system: NSCLC cell lines H1299, A549, H460 and colon cancer cell line SW480; assay: Cell survival assay (crystal violet), screening; format: cell-based, human; conditions: 50 and 100 μM, 3 days, all cancer cell lines tested
Method: (§1) Typically, the small molecule compounds of the present invention were dissolved in DMSO at a concentration of 30 mM. The small molecule compounds were then tested under cell culture conditions at different concentrations ranging from 0, 10, 30, 50, to 100 uM. To determine cell survival after treatment, the cells were incubated with the small molecule compounds in 6-well plates for about 3 days. After removal of the cell culture medium, 1-ml of 0.5% crystal violet solution (prepared in 20% ethanol and 20% methanol) was added to stain the cells for 5 min. Then the crystal violet solution was rinsed clean with tap water. Cell survival was estimated based on the density of crystal stained plates.
Cancer cell lines were plated in 6-well plates as described, and incubated with 50, and 100 μM of each compound (stocks were dissolved in DMSO at 30 mM) for 3 days. […] Apoptosis analysis was also carried out by using flow cytometry and the results were consistent (data not shown). Therefore, using the rational design design-screen approach described herein, additional small molecule compound, FN1-8, inhibiting GLI3 transcription activation domain (TAF-binding domain) was identified.

[2] = system: melanoma cell lines A375, G361, SK-Mel-2, SK-Mel-5, and SK-Mel-28; assay: Dose titration, cell killing; format: cell-based, human; conditions: A375, 2-40 μM tested, 3 days; similar effect in G361, SK-Mel-2, SK-Mel-5, SK-Mel-28
Method: as §1
Dose titration experiments of small molecule compound FN1-8 was performed using the melanoma cell lines A375, G361, SK-Mel-2, SK-Mel-5, and SK-Mel-28. A 375 cells were plated in 6-well plates and incubated with DM SO (control) or 2 μM, 5 μM, 10 μM, 20 μM, and 40 μM of FN1-8, respectively, for 3 days. A dramatic and dose-dependent cell killing in this cell line was observed when FN1-8 was added at 10 μM or more (data not shown). […]

[3] = system: human glioma cell line U87; assay: Cell survival assay (crystal violet); format: cell-based; conditions: U87, 50 μM
Method: as §1
The cell-based cytotoxicity assay described herein was used to determine the effect of small molecule compounds FN1-5 and FN1-8 in the human glioma cell line U87. Viability of U87 cells was analyzed after treatment with 30 and 50 μM FN1-5 and 10, 30, and 50 μM FN1-8.

Melanoma LOX tumor = assay: Mouse Xenograft Model (Melanoma LOX); format: in vivo; conditions: 50 mg/kg i.p. daily for 2×6 days
Method: (§2) The small molecule compound FN1-8 was tested in vivo in the mouse xenograft model bearing human cancer cells. Briefly, female athymic nude mice strain NCRNU-M (5-10 weeks old, 20-25 grams in weight; Taconic, Germantown, N.Y.) was maintained in pathogen-free conditions. Three human cancer cell lines: NSCLC H460, melanoma LOX, (both showing Gli3 activation), and colon cancer HT29 (no Gli3 activation, as a negative control), were used. Ten mice were used in each group and injected s.c. with 3×10^6 cancer cells in the dorsal area in a volume of 100 μl. After inoculation, human cancer cells were allowed to grow in mice for 7 days to become visible tumor nodules. Animals were then injected with small molecule compound FN1-8 at a dose of 50 mg/kg body weight (1 mg/mouse per day). DMSO alone was used as control. […] Tumor size was measured every three days, and tumor volumes were calculated using width (x) and length (y) (x^2y/2, where x<y). […]
In vivo efficacy study of small molecule compound FN1-8 were performed using a Mouse Xenograft Model (Melanoma Lox). […] Tumor size and tumor volumes were calculated as described above.
Three weeks after the initial tumor inoculation and the treatment as described above, tumors were dissected from the mice of each group and their weights were measured using a scale.

NSCLC A549 tumor = assay: Mouse Xenograft Model (NSCLC A549); format: in vivo; conditions: 15 mg/kg daily 2×6 days then 30 mg/kg daily 1×6 days i.p.; 43 days after inoculation
Method: as §2, with “control. The compounds and controls were adjusted in 40 ul volume for i.p. injection in the abdomens of the mice. One mouse was sacrificed within 1 hour after the compound injection (after 6 injections) and its blood was collected.” for “control.”
In vivo efficacy study ofFN1-8 in Mouse Xenograft Model (NSCLC A549) was also examined. […] 43 days after the initial tumor inoculation, tumors were dissected from the mice of each group and their weights were measured using a scale. […]

Q: What does the source list for `O=C(NCCc1ccc(O)cc1)C1C(c2ccccc2)=NN(c2ccccc2)C1c1ccccc1` (stereo not drawn) [FN1-8, N-(2-(4-Hydroxyphenyl)ethyl)-1,3,5-triphenyl-4,5-dihydro-pyrazole-4-carboxyamide]?
A: cell killing [1]: Dramatic cell killing; concentration at which dramatic and dose-dependent cell killing was observed [2]: ≥ 10 µM; cell killing [3]: dramatic cell killing; tumor growth (Melanoma LOX tumor): dramatically suppressed; also recorded: significantly suppressed; tumor weight (Melanoma LOX tumor; three weeks after inoculation): dramatically decreased; tumor weight (NSCLC A549 tumor): decreased
